Source: US9718790B2, “Triazine derivative and pharmaceutical composition having an analgesic activity comprising the same” (SHIONOGI & CO., LTD., priority 2010, dated 2017)

target: human P2X3 receptor (Homo sapiens (Human), UniProt P56373); test: Evaluation of human P2X3 receptor inhibitory activity (Fluo-3 calcium fluorescence, FDSS 3000, ATP stimulation); type: cell-based; settings: C6BU-1 cells stably expressing human P2X3 receptor;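 note: stimulus was 50 nM ATP with fluorescence followed for 3 min, and the response per well was peak post-ATP fluorescence divided by the reading at measurement start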
Sequence (P56373 whole entry): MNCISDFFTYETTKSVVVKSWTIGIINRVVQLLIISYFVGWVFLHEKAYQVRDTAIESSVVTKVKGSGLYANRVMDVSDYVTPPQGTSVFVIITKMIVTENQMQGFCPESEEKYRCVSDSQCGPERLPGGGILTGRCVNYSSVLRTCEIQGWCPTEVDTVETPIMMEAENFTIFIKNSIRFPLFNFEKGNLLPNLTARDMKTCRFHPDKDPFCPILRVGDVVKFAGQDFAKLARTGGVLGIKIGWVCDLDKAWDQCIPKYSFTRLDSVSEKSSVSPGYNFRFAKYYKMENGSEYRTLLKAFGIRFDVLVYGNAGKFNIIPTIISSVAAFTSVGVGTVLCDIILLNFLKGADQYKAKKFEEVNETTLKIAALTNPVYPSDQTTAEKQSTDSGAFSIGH

Row | SMILES | IC50
1 | COC(=O)C(C)(C)Cn1c(=O)[nH]/c(=N\c2ccc(OCC3CC3)cc2)n(Cc2ccc(C)cc2)c1=O [Compound I-1242] | 0.015 µM
2 | CCn1c(=O)[nH]/c(=N\c2ccc(Oc3cccc4ocnc34)c(Cl)c2)n(Cc2ccc(Cl)cc2)c1=O [Compound I-2195] | 0.014 µM
3 | CNC(=O)Cn1c(=O)[nH]/c(=N\c2ccc(OCC3CC3)cc2)n(Cc2ccc(Cl)cc2)c1=O [Compound I-1942] | 0.049 µM
4 | CC(C)Oc1ccc(/N=c2\[nH]c(=O)n(Cc3ccc[nH]c3=O)c(=O)n2Cc2ccc(Cl)cc2)cc1F [Compound I-0685] | 0.008 µM
5 | COc1cc(/N=c2\[nH]c(=O)n(C[C@H](C)C(=O)O)c(=O)n2Cc2ccc(C)cc2)ccc1CC(C)C [Compound I-1261] | 0.018 µM
6 | Cc1ccc(Cn2c(=O)n(CC(C)(C)C(=O)O)c(=O)[nH]/c2=N\c2ccc(OCC3CC3)cc2)cc1 [Compound I-1268] | 0.052 µM
7 | C[C@@H](Oc1ccc(/N=c2\[nH]c(=O)n(CCC(=O)O)c(=O)n2Cc2ccc(Cl)cc2)cc1)C(F)(F)F [Compound I-1908] | 0.07 µM
8 | COC(=O)c1cccc(Oc2ccc(/N=c3\[nH]c(=O)[nH]c(=O)n3Cc3ccc(Cl)cc3)cc2)c1 [Compound I-1919] | 0.214 µM
9 | Cc1ccc(Cn2c(=O)n(C[C@H](C)C(=O)O)c(=O)[nH]/c2=N\c2ccc3nc(C)ccc3c2)cc1 [Compound I-1278] | 0.033 µM
10 | COC(=O)C(C)(C)n1c(=O)[nH]/c(=N\c2ccc(OC(C)C)c(Cl)c2)n(Cc2ccc(Cl)cc2)c1=O [Compound I-0640] | 0.005 µM
11 | CC(C)Oc1ccc(/N=c2\[nH]c(=O)n([C@H]3C[C@@H]3C(=O)O)c(=O)n2Cc2ccc(Cl)cc2)cc1F [Compound I-0675] | 0.037 µM
12 | CCn1c(=O)[nH]/c(=N\c2ccc(Oc3ccc(CO)nc3)cc2)n(Cc2ccc(Cl)cc2)c1=O [Compound I-2114] | 0.007 µM
13 | CCOc1ccc(/N=c2\[nH]c(=O)n(C[C@H](C)C(=O)OC)c(=O)n2Cc2ccc(C)cc2)cc1Cl [Compound I-0678] | 0.008 µM
14 | CCCOc1ccc(/N=c2\[nH]c(=O)n(C[C@H](C)C(=O)O)c(=O)n2Cc2ccc(Cl)cc2)cc1Cl [Compound I-0747] | 0.012 µM
15 | Cc1ccc(Cn2c(=O)n([C@@H](C)[C@@H](C)C(=O)O)c(=O)[nH]/c2=N\c2ccc(OC3CCC3)cc2)cc1 [Compound I-1392] | 0.018 µM
16 | CC(C)(Cn1c(=O)[nH]/c(=N\c2ccc(OCC3CC3)cc2)n(Cc2ccc(Cl)cc2)c1=O)C(=O)O [Compound I-1263] | 0.025 µM
17 | COC(=O)[C@@H](C)Cn1c(=O)[nH]/c(=N\c2ccc3nc(C)oc3c2)n(Cc2ccc(C)cc2)c1=O [Compound I-1276] | 0.078 µM
18 | Cc1ccc(Cn2c(=O)n(C[C@H](C)C(=O)O)c(=O)[nH]/c2=N\c2ccc(OC3CCCCC3)nc2)cc1 [Compound I-1188] | 0.131 µM
19 | Cc1nc2ccc(/N=c3\[nH]c(=O)n([C@H](C)[C@H](C)C(=O)O)c(=O)n3Cc3ccc(Cl)cc3)cc2s1 [Compound I-1467] | 0.012 µM

same assay, conditions: C6BU-1 cells stably expressing human P2X3 receptor, Fluo-3 fluorescence, FDSS 3000

Row | SMILES | IC50
20 | Cc1ccc(Cn2c(=O)n(CCCCC(=O)O)c(=O)[nH]/c2=N\c2ccc(OC(C)C)c(Cl)c2)cc1 [Compound I-1878] | 0.01 µM
21 | COC(=O)[C@@H](C)Cn1c(=O)[nH]/c(=N\c2ccc(OCCC(C)C)cc2)n(Cc2ccc(C)cc2)c1=O [Compound I-1049] | 0.177 µM
22 | Cc1ccc(Cn2c(=O)n(C[C@H](C)C(=O)O)c(=O)[nH]/c2=N\c2ccc(C=C3CCCC3)cc2)cc1 [Compound I-1098] | 0.074 µM
23 | Cc1ccc(Cn2c(=O)n(C[C@@H](C)C(=O)O)c(=O)[nH]/c2=N\c2ccc(OC(C)C)cc2)cc1 [Compound I-1105] | 0.152 µM
24 | CCn1c(=O)[nH]/c(=N\c2ccc3nc(C)sc3c2)n(Cc2ccc(Cl)cc2)c1=O [Compound I-1702] | 0.004 µM
25 | CC(=O)NCCCn1c(=O)[nH]/c(=N\c2ccc(O[C@H](C)C(F)(F)F)cc2)n(Cc2ccc(Cl)cc2)c1=O [Compound I-1615] | 0.012 µM
26 | COC(=O)[C@@H](C)Cn1c(=O)[nH]/c(=N\c2ccc(Oc3cccnc3)cc2)n(Cc2ccc(C)cc2)c1=O [Compound I-1126] | 0.008 µM
27 | CCCOc1ccc(/N=c2\[nH]c(=O)n(C[C@@H](CC)C(=O)OC)c(=O)n2Cc2ccc(Cl)cc2)cc1 [Compound I-1038] | 0.006 µM
28 | CC(C)Oc1ccc(/N=c2\[nH]c(=O)n(CCC(=O)O)c(=O)n2CCC2C[C@H]3CC[C@@H]2C3)cc1F (stereo partly drawn) [Compound I-1729] | 0.669 µM

same assay, conditions: human P2X3 receptor, Test Example 1

Row | SMILES | IC50
29 | Cc1cc(/N=c2\[nH]c(=O)n(C[C@H](O)C(=O)O)c(=O)n2Cc2ccc(Cl)cc2)ccc1OC(C)C [Compound I-0852, (S)-1-(4-chlorobenzyl)-6-(3-mehyl-4-isopropoxyphenylimino)-3-(2-hydroxycarbonyl-2-hydroxyethyl)-1,3,5-triazinane-2,4-dion] | 0.038 µM
30 | O=C(O)c1cc(Oc2ccc(/N=c3\[nH]c(=O)n(C4CC4)c(=O)n3Cc3ccc(Cl)cc3)cc2)ccn1 [Compound I-2330] | 0.007 µM
31 | COC(=O)[C@H](C)Cn1c(=O)[nH]/c(=N\c2ccc(N3CCCCC3)cc2)n(Cc2ccc(Cl)cc2)c1=O [Compound I-1484] | 0.006 µM
32 | O=c1[nH]/c(=N\c2ccc(Oc3ccnc(Cl)c3)cc2)n(Cc2ccc(Cl)cc2)c(=O)n1CC(CO)CO [Compound I-2704] | 0.004 µM
33 | Cc1nc2ccc(/N=c3\[nH]c(=O)n(CCC(=O)O)c(=O)n3Cc3ccc(Cl)cc3)cc2s1 [Compound I-1520] | 0.032 µM
34 | Cn1c(=O)[nH]/c(=N\c2ccc(Oc3cccc(C(N)=O)n3)cc2)n(Cc2ccc(Cl)cc2)c1=O [Compound I-2274] | 0.005 µM
35 | CCn1c(=O)[nH]/c(=N\c2ccc(Oc3ccnc(C(=O)O)c3)cc2)n(Cc2ccc(F)cc2)c1=O [Compound I-2360] | 0.011 µM
36 | CNCCCn1c(=O)[nH]/c(=N\c2ccc(OC(C)C)c(F)c2)n(Cc2ccc(Cl)cc2)c1=O [Compound I-2316] | 0.051 µM
37 | CCn1c(=O)[nH]/c(=N\c2ccc(Oc3ccc(C(=O)O)nc3)cc2)n(Cc2ccc(Cl)cn2)c1=O [Compound I-2278] | 0.136 µM
38 | CNC(=O)Cn1c(=O)[nH]/c(=N\c2ccc(Oc3cccc(F)n3)cc2)n(Cc2ccc(Cl)cc2)c1=O [Compound I-2585] | 0.008 µM
39 | CCn1c(=O)[nH]/c(=N\c2ccc(Oc3cnc(C(N)=O)cn3)cc2)n(Cc2ccc(Cl)cc2)c1=O [Compound I-2388] | 0.003 µM
40 | C=COc1ccc(N(C)c2nc(=O)n(C[C@H](C)C(=O)OC)c(=O)n2Cc2ccc(C)cc2)cc1Cl [Compound I-1550] | 0.833 µM
41 | CCn1c(=O)[nH]/c(=N\c2ccc(Oc3nc(C(=O)O)c(C)s3)cc2)n(Cc2ccc(Cl)cc2)c1=O [Compound I-2450] | 0.008 µM
42 | Cn1c(=O)[nH]/c(=N\c2ccc(Oc3cccc(C(=O)O)n3)c(F)c2)n(Cc2ccc(Cl)cc2)c1=O [Compound I-2502] | 0.007 µM
43 | O=C(Cn1c(=O)[nH]/c(=N\c2ccc(Oc3cccnn3)cc2)n(Cc2ccc(Cl)cc2)c1=O)NCCO [Compound I-2691] | 0.008 µM
44 | CO/N=C/c1ccc(/N=c2\[nH]c(=O)n(C[C@H](C)C(=O)O)c(=O)n2Cc2ccc(Cl)cc2)cc1F [Compound I-0893, (S)-1-(4-chlorobenzyl)-6-(3-fluoro-4-methoxyiminomethylphenylimino)-3-(2-hydroxycarbonylpropyl)methyl-1,3,5-triazinane-2,4-dion] | 0.202 µM
45 | COC(=O)[C@@H](C)Cn1c(=O)[nH]/c(=N\c2ccc(OCC3CC3)cc2)n(Cc2ccc(C)cc2)c1=O [Compound I-0834] | 0.018 µM
